The record followed here is ChEMBL document CHEMBL1155463 (J Med Chem, 2010).

Structures are written as SMILES. Values after ≈ are worked out from the molar mass of the structure shown.

A word on the pKa: it is the negative logarithm of the acid dissociation constant. A high value points to a weaker acid or stronger base. What is called solubility (thermodynamic) is solubility found after equilibrating the solid with the medium. In general, logP refers to a log measure of how a compound divides between an organic and an aqueous phase. A lower logP goes with a more hydrophilic compound. A word on the logD: it is lipophilicity at a set pH, counting ionised and neutral species. A low value points to lower lipophilicity. What is called fraction remaining is what is left of the initial amount, in per cent. Read a low fraction remaining as a greater loss.

Data set [1] can be described thus: physchem.
Description: Ionization constant, pKa by spectrophotometry
Data set [2] is described as follows: physchem. The conditions noted are these: phosphate buffer, pH 9.9.
Description: Thermodynamic solubility in 50 mM aqueous phosphate buffer of pH 9.9 at 22.5 degC by HPLC analysis
The nature of data set [3]: physchem. The conditions noted are these: octanol/water.
Description: Lipophilicity, log P of the compound
A short description of data set [4]: physchem. The conditions noted are these: octanol/water, pH 7.4.
Data set [5] in a line: physchem. The conditions noted are these: aqueous solution, pH 1.
Description: Chemical stability in aqueous solution at pH 1 after 2 hrs

Molecule `CN(C)CCCCc1ccc(C2(O)COC2)cc1` registered a pKa in data set [1] of 9.6. In addition, in data set [2], the thermodynamic solubility was found to be 300 mM (≈ 74800 µg/mL).

On to `CN(C)CCCCc1ccc(C2(F)COC2)cc1`, for which the pKa in data set [1] was determined as 9.9. The logP in data set [3] turned out to be 2. For the same molecule, the solubility (thermodynamic) in data set [2] amounted to 24 mM (≈ 6030 µg/mL). In addition, the logD in data set [4] is -0.5.

As for `CN(C)CCCCc1ccc(C2COC2)cc1`, the pKa in data set [1] came out at 9.9. This molecule also gave a logP in data set [3] of 2.4. The molecule also registered a solubility (thermodynamic) in data set [2] of 17 mM (≈ 3970 µg/mL). Further, in data set [5], the amount remaining at 2 h is 83%. This molecule also came in with a logD in data set [4] of -0.1.

On to `CN(C)CCCCc1ccc(C(C)(C)C)cc1`, for which the logP in data set [3] came to 5. The molecule also registered a solubility (thermodynamic) in data set [2] of less than 0.004 mM.

Regarding `CN(C)CCCCc1ccc(C2(C)COC2)cc1`, the pKa in data set [1] was 9.9. This molecule also gave a logP in data set [3] of 3.3. This molecule also returned a solubility (thermodynamic) in data set [2] of 18 mM (≈ 4450 µg/mL). The molecule further had a logD in data set [4] of 0.8.

For `CN(C)CCC(C)(C)Cc1ccc(C(C)(C)C)cc1`, the pKa in data set [1] worked out at 9.5.

Take `CN(C)CCC1(Cc2ccc(C(C)(C)C)cc2)COC1`: the pKa in data set [1] was determined as 9.2. Also, the logP in data set [3] was 3.5. In addition, the thermodynamic solubility in data set [2] amounted to 15 mM (≈ 4130 µg/mL). Moreover, the logD in data set [4] was 1.7.

`CN(C)CC(C)(C)CCc1ccc(C(C)(C)C)cc1` came in with a solubility (thermodynamic) in data set [2] of 0.004 mM (≈ 1.05 µg/mL).

`c1cc2c(cc1CN1CCCCC1)OCO2` showed a pKa in data set [1] of 9.6. The same molecule registered a thermodynamic solubility in data set [2] of 2.1 mM (≈ 460 µg/mL).

In data set [1], `CC1(C)CCCN1Cc1ccc2c(c1)OCO2` yielded a pKa of 10. The molecule further gave a logP in data set [3] of 3.5. The same molecule came in with a thermodynamic solubility in data set [2] of 0.18 mM (≈ 42 µg/mL). The logD in data set [4] is 0.9.

Take `CCc1ccc(CCCCN(C)C)cc1`: the pKa in data set [1] was 9.9. Besides, the log partition coefficient (logP) in data set [3] was 4.3. In data set [2], this molecule had a thermodynamic solubility of 0.25 mM (≈ 51.3 µg/mL). The molecule also displayed a pH-dependent lipophilicity (logD) in data set [4] of 1.8.

`CN(C)CCCC(C)(C)c1ccc(C(C)(C)C)cc1` displayed a solubility (thermodynamic) in data set [2] of less than 0.004 mM.

Molecule `c1cc2c(cc1CN1CCCC1)OCO2` showed a pKa in data set [1] of 9.7. The logP in data set [3] stood at 2.5. The molecule further returned a solubility (thermodynamic) in data set [2] of 2.8 mM (≈ 575 µg/mL). Besides, the logD in data set [4] was found to be 0.2.

`c1cc2c(cc1CN1CCC1)OCO2`: the pKa in data set [1] was 9.5. This molecule also gave a logP in data set [3] of 2.1. Also, in data set [2], the thermodynamic solubility was 13 mM (≈ 2490 µg/mL). This molecule also gave a logD in data set [4] of -0.1.

`O=C1CCCCN1Cc1ccc2c(c1)OCO2` had a logP in data set [3] of 1.6. The same molecule registered a thermodynamic solubility in data set [2] of 27 mM (≈ 6300 µg/mL). The logD in data set [4] is 1.6.

In data set [1], `c1cc2c(cc1CN1CCOCC1)OCO2` came in with a pKa of 7. Besides, the logP in data set [3] came out at 1.6. In data set [2], this molecule gave a solubility (thermodynamic) of 36 mM (≈ 7970 µg/mL). Further, in data set [4], the logD turned out to be 1.5.

In data set [1], `CN(C)C1(CCCc2ccc(C(C)(C)C)cc2)COC1` registered a pKa of 7.2. This molecule had a logP in data set [3] of 3.6. In addition, the solubility (thermodynamic) in data set [2] worked out at 0.21 mM (≈ 57.8 µg/mL). The same molecule displayed a logD in data set [4] of 3.3.

With `CC1(C)CCN1Cc1ccc2c(c1)OCO2`, the pKa in data set [1] is 10.1. This molecule came in with a logP in data set [3] of 2.8. In addition, the solubility (thermodynamic) in data set [2] was 1.7 mM (≈ 373 µg/mL). In data set [4], the logD was 0.1.

In data set [1], `c1cc2c(cc1CN1CCC13COC3)OCO2` displayed a pKa of 6.2. The molecule further registered a logP in data set [3] of 1.3. Also, the solubility (thermodynamic) in data set [2] was determined as 6 mM (≈ 1400 µg/mL). This molecule also yielded a logD in data set [4] of 1.3.

`O=C1CCN1Cc1ccc2c(c1)OCO2` displayed a logP in data set [3] of 1.1. The same molecule displayed a solubility (thermodynamic) in data set [2] of 10 mM (≈ 2050 µg/mL). This molecule displayed a logD in data set [4] of 1.1.

`CC1(C)CN(Cc2ccc3c(c2)OCO3)C1` came in with a pKa in data set [1] of 9.6. In data set [3], this molecule had a log partition coefficient (logP) of 3.1. Moreover, the thermodynamic solubility in data set [2] came out at 1.3 mM (≈ 285 µg/mL). The molecule also yielded a logD in data set [4] of 0.8.

Turning to `c1cc2c(cc1CN1CC3(COC3)C1)OCO2`, the pKa in data set [1] stood at 8. The logP in data set [3] was determined as 1.2. The same molecule returned a thermodynamic solubility in data set [2] of 100 mM (≈ 23300 µg/mL). In data set [4], the logD is 0.5.

On to `O=C1CCCN1Cc1ccc2c(c1)OCO2`, for which the logP in data set [3] turned out to be 1.2. The thermodynamic solubility in data set [2] turned out to be 6.8 mM (≈ 1490 µg/mL). Also, the logD in data set [4] was 1.2.

Take `CC1(C)CCN(Cc2ccc3c(c2)OCO3)C1`: the pKa in data set [1] was 9.7. In addition, the logP in data set [3] amounted to 3.7. The thermodynamic solubility in data set [2] was determined as 0.17 mM (≈ 39.7 µg/mL). Further, the logD in data set [4] stood at 1.4.

Molecule `c1cc2c(cc1CN1CCC3(COC3)C1)OCO2` showed a pKa in data set [1] of 8.1. The logP in data set [3] amounted to 1.5. Moreover, the thermodynamic solubility in data set [2] was 3 mM (≈ 742 µg/mL). Moreover, the logD in data set [4] was 0.7.

In data set [1], `O=C1CCN(Cc2ccc3c(c2)OCO3)C1` registered a pKa of 6.1. The molecule further came in with a logP in data set [3] of -0.1. Moreover, the thermodynamic solubility in data set [2] worked out at 19 mM (≈ 4170 µg/mL). Besides, the logD in data set [4] amounted to 0.1.

Take `CC1(C)CCCCN1Cc1ccc2c(c1)OCO2`: the pKa in data set [1] was found to be 10.2. This molecule showed a lipophilicity (logP) in data set [3] of 3.9. For the same molecule, the solubility (thermodynamic) in data set [2] was 0.12 mM (≈ 29.7 µg/mL). For the same molecule, the logD in data set [4] stood at 1.1.

In data set [1], `c1cc2c(cc1CN1CCCCC13COC3)OCO2` displayed a pKa of 7. The logP in data set [3] came to 2.4. In data set [2], the solubility (thermodynamic) is 2.9 mM (≈ 758 µg/mL). Besides, in data set [4], the logD came to 2.2.

On to `CC1(C)CCCN(Cc2ccc3c(c2)OCO3)C1`, for which the pKa in data set [1] is 9.4. The same molecule had a logP in data set [3] of 4.3. The molecule further gave a solubility (thermodynamic) in data set [2] of 0.053 mM (≈ 13.1 µg/mL). This molecule displayed a logD in data set [4] of 2.3.

The molecule `CN(C)CCCC1(c2ccc(C(C)(C)C)cc2)COC1` came in with a pKa in data set [1] of 9.6. For the same molecule, in data set [3], the logP came to 3.9. In data set [2], this molecule came in with a solubility (thermodynamic) of 0.98 mM (≈ 270 µg/mL). In data set [4], this molecule had a logD of 1.7.

For `c1cc2c(cc1CN1CCCC13COC3)OCO2`, the pKa in data set [1] was 6.3. Besides, the logP in data set [3] was 1.9. Besides, the thermodynamic solubility in data set [2] amounted to 8.5 mM (≈ 2100 µg/mL). The logD in data set [4] worked out at 1.9.

`c1cc2c(cc1CN1CCCC3(COC3)C1)OCO2` showed a pKa in data set [1] of 7.9. The molecule further displayed a logP in data set [3] of 2.3. Further, the thermodynamic solubility in data set [2] was found to be 7.7 mM (≈ 2010 µg/mL). This molecule registered a logD in data set [4] of 1.7.

The molecule `O=C1CCCN(Cc2ccc3c(c2)OCO3)C1` displayed a pKa in data set [1] of 7.6. In data set [3], this molecule showed a logP of 0.5. Besides, the thermodynamic solubility in data set [2] came out at 9 mM (≈ 2100 µg/mL). In addition, the logD in data set [4] amounted to 0.1.

For `CC1(C)CCN(Cc2ccc3c(c2)OCO3)CC1`, the pKa in data set [1] amounted to 9.5. The molecule further came in with a logP in data set [3] of 4.4. Further, the thermodynamic solubility in data set [2] is 0.89 mM (≈ 220 µg/mL). Also, in data set [4], the logD amounted to 2.3.

On to `c1cc2c(cc1CN1CCC3(CC1)COC3)OCO2`, for which the pKa in data set [1] turned out to be 8.3. In addition, the logP in data set [3] is 2. The molecule further gave a thermodynamic solubility in data set [2] of 5.4 mM (≈ 1410 µg/mL). The same molecule showed a logD in data set [4] of 1.

In data set [1], `c1cc2c(cc1CN1CC3CC(C1)O3)OCO2` came in with a pKa of 7.1. In data set [2], the thermodynamic solubility is more than 11 mM.
